Experimental data taken from the NIST ThermoML archive (doi:10.1021/je9006037).

Columns and labels:
[1] = refractive index (Na D-line) (dimensionless); xn = mol fraction of the nth substance listed; details: 101 kPa, Liquid
[2] = 298.15 K; 101.33 kPa; Liquid

CCn1cc[n+](C)c1.O=S(=O)([O-])C(F)(F)F [1-ethyl-3-methylimidazolium trifluoromethanesulfonate] + CO
refractive index, [1]
Details	288.15 K	298.15 K	308.15 K	318.15 K
x1 = 0.04981	1.35401	1.35019	1.34673	1.34425
x1 = 0.1006	1.37019	1.36654	1.3636	1.36131
x1 = 0.1503	1.38187	1.37846	1.37522	1.37261
x1 = 0.2002	1.39131	1.38786	1.38479	1.38175
x1 = 0.2516	1.39849	1.39527	1.39212	1.38903
x1 = 0.3018	1.40415	1.40103	1.3983	1.39535
x1 = 0.3977	1.41297	1.40987	1.40694	1.40394
x1 = 0.499	1.41931	1.4163	1.41325	1.41035
x1 = 0.5911	1.42382	1.42086	1.41783	1.41502
x1 = 0.7059	1.42818	1.42529	1.42236	1.41954
x1 = 0.8054	1.43127	1.42843	1.42553	1.42265
x1 = 0.8494	1.43236	1.42952	1.42665	1.42387
x1 = 0.9013	1.43359	1.4308	1.42799	1.42515
x1 = 1	1.43599	1.43322	1.4304	1.42767

CCO [ethanol]
Details	mass density [kg/m3]
[2]	785.1

CCO [ethanol] + CCn1cc[n+](C)c1.O=S(=O)([O-])C(F)(F)F
[1], x2 = 0
Details	refractive index
288.15 K	1.36358
298.15 K	1.3593
308.15 K	1.35503
318.15 K	1.35073
328.15 K	1.3463

CO [methanol]
Details	mass density [kg/m3]
[2]	786.49

CO [methanol] + CCn1cc[n+](C)c1.O=S(=O)([O-])C(F)(F)F
[1], x2 = 0
Details	refractive index
288.15 K	1.33071
298.15 K	1.32653
308.15 K	1.32237
318.15 K	1.3182

CCCO [propan-1-ol]
Details	mass density [kg/m3]
[2]	799.56

CCCO [propan-1-ol] + CCn1cc[n+](C)c1.O=S(=O)([O-])C(F)(F)F
[1], x2 = 0
Details	refractive index
288.15 K	1.38732
298.15 K	1.38318
308.15 K	1.37897
318.15 K	1.37471
328.15 K	1.37036
338.15 K	1.36587

CC(C)O [propan-2-ol]
Details	mass density [kg/m3]
[2]	780.89

CC(C)O [propan-2-ol] + CCn1cc[n+](C)c1.O=S(=O)([O-])C(F)(F)F
[1], x2 = 0
Details	refractive index
288.15 K	1.37924
298.15 K	1.37492
308.15 K	1.37048
318.15 K	1.36586
328.15 K	1.36103
338.15 K	1.35599
